What is called DC50 is the concentration giving 50% degradation. High values mean a less potent degrader, low ones a more potent degrader. Broadly, the Dmax is the greatest extent of degradation seen.

The record followed here is patent US12570662B2, “Substituted pyrrolo[1,2-b]pyridazines as bifunctional degraders of interleukin-1 receptor-associated kinases” (Nurix Therapeutics, Inc., priority 2021, dated 2026).

This experiment has as its target T1, IRAK4 (Homo sapiens, UniProt Q9NWZ3).
T1 construct: C-terminal HiBiT-tagged Jurkat cells (polyclonal cell line or clone 8D5); endogenous in cells; host or cells: Jurkat cells (polyclonal cell line or clone 8D5), HiBiT-tagged
T1 sequence (Q9NWZ3 1-460): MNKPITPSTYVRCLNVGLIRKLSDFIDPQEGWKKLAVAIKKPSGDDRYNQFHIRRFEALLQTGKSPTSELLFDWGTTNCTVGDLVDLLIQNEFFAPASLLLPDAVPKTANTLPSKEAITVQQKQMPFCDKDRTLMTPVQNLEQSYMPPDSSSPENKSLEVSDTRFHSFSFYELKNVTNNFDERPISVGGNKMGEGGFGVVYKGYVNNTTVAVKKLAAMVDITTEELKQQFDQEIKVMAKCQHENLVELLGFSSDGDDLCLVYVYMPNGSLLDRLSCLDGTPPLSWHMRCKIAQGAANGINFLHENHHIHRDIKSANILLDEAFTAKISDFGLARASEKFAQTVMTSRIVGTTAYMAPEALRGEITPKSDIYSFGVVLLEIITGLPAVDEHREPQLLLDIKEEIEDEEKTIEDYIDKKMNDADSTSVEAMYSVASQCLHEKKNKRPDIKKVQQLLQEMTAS
The experiment can be described thus: IRAK4 Degradation HiBit Assay. It is filed as cell-based. Particulars: C-terminal HiBiT-tagged Jurkat cells, 4 hrs incubation; for DC50: % IRAK4 remaining, four-parameter fit (IC50 used as DC50); for Dmax: from fit of % IRAK4 remaining, read-out: Dmax. How it is done: Compound dilution series (11-point, 3.16-fold dilutions in DMSO, columns 1-11 and 12-22) at 500× the final required concentrations were prepared in Labcyte LDV 384-well plates (cat. no. LP-0200) using a Labcyte Echo 550 Liquid Handler. The 500× solutions ranged from 5 mM to 0.5 μM (final assay concentration range 10 μM to 0.1 nM). Using the Echo, the 500× solutions were stamped into white, 384-well assay plates (Corning, cat. no. 3570) at 60 nL/well. The following assay plate controls were also stamped at 60 nL/well: DMSO in wells E23-P23 (NC, Negative Control, maximum signal), 5 mM solution control compound al in wells A23-D23 and M24-P24 (AC, Active Control, minimum signal/background, 10 μM final assay concentration), control compound al dilution series in wells […] (12-point, 4-fold dilutions). C-terminal HiBiT-tagged Jurkat cells (polyclonal cell line or clone 8D5) were plated at 1×10^6 cells/mL, 30 μL/well (3×10^4 cells/well) in complete RPMI (10% FBS, 1% L-glutamine). Cells were incubated for 4 hrs at 32° C./6% CO2. Compound al has the following structure:
Following incubation, 30 μL of complete Nano-Glo HiBiT Lytic Detection Reagent (Nano-Glo HiBiT Lytic Buffer with 1:50 Nano-Glo HiBiT Lytic Substrate and 1:100 LgBiT Protein; Promega cat. no. N3040) was added. Cells were further incubated for 10 min at room temperature (RT). Luminescence units (LU) were read on an EnVision plate reader (Perkin Elmer, 0.1 sec per well). Percent IRAK4 remaining per sample was calculated as follows: […]
Using Graphpad Prism, % IRAK4 remaining values were plotted as a function of compound concentration. To determine DC50 and Dmax values, resulting curves were fit to the Prism curve-fitting equation “log (inhibitor) vs response-Variable slope (four parameters)” (reported best fit value IC50 used as DC50). Table 1 summarizes the biological data of Compounds of Examples 1-137 and 142-145 obtained from the assays described herein.
A general note: The HiBiT peptide binds its large partner to form an active luciferase.

`N#Cc1cnn2c(-c3cc(N[C@H]4CCOC4)c(-c4nnc(N5CCN(CC6CCN(c7ccc([C@H]8CCC(=O)NC8=O)cn7)CC6)CC5)s4)cn3)ccc2c1` (mixture of isomers) [Example 93, 7-[5-(5-{4-[(1-{5-[(3RS)-2,6-dioxopiperidin-3-yl]pyridin-2-yl}piperidin-4-yl)methyl]piperazin-1-yl}-1,3,4-thiadiazol-2-yl)-4-{[(3R)-oxolan-3-yl]amino}pyridin-2-yl]pyrrolo[1,2-b]pyridazine-3-carbonitrile]: it took 16 nM to reach half-maximal degradation (DC50) and the Dmax amounted to 115%.
Turning to `N#Cc1cnn2c(-c3cc(NC4CCC(F)(F)CC4)c(-c4nnc(N5CCN(CC6CCN(c7ccc(C8CCC(=O)NC8=O)cn7)CC6)CC5)s4)cn3)ccc2c1` (racemic) [Example 1, rac-7-{4-[(4,4-difluorocyclohexyl)amino]-5-(5-{4-[(1-{5-[(3R)-2,6-dioxopiperidin-3-yl]pyridin-2-yl}piperidin-4-yl)methyl]piperazin-1-yl}-1,3,4-thiadiazol-2-yl)pyridin-2-yl}pyrrolo[1,2-b]pyridazine-3-carbonitrile], the DC50 came out at 860 nM and the Dmax is 96%.
For `CC(C)Nc1cc(-c2ccc3cc(C#N)cnn23)ncc1-c1nnc(N2CC3CCC(C2)N3CC2CCN(c3ccc([C@H]4CCC(=O)NC4=O)cn3)CC2)s1` (racemic) [Example 2, rac-7-[5-(5-{8-[(1-{5-[(3R)-2,6-dioxopiperidin-3-yl]pyridin-2-yl}piperidin-4-yl)methyl]-3,8-diazabicyclo[3.2.1]octan-3-yl}-1,3,4-thiadiazol-2-yl)-4-[(propan-2-yl)amino]pyridin-2-yl]pyrrolo[1,2-b]pyridazine-3-carbonitrile], in that order: 53 nM and 67%.
For `N#Cc1cnn2c(-c3cc(NC4CCOCC4)c(-c4nnc(N5CCN(CC6CCN(c7ccc(C8CCC(=O)NC8=O)c(F)c7)CC6)CC5)s4)cn3)ccc2c1` (racemic) [Example 3, rac-7-[5-(5-{4-[(1-{4-[(3R)-2,6-dioxopiperidin-3-yl]-3-fluorophenyl}piperidin-4-yl)methyl]piperazin-1-yl}-1,3,4-thiadiazol-2-yl)-4-[(oxan-4-yl)amino]pyridin-2-yl]pyrrolo[1,2-b]pyridazine-3-carbonitrile], in that order: 55 nM and 93%.
`N#Cc1cnn2c(-c3cc(NC4CCOCC4)c(-c4nnc(N5CCN(CC6CCN(c7ccc(C8CCC(=O)NC8=O)cc7F)CC6)CC5)s4)cn3)ccc2c1` (racemic) [Example 4, rac-7-[5-(5-{4-[(1-{4-[(3R)-2,6-dioxopiperidin-3-yl]-2-fluorophenyl}piperidin-4-yl)methyl]piperazin-1-yl}-1,3,4-thiadiazol-2-yl)-4-[(oxan-4-yl)amino]pyridin-2-yl]pyrrolo[1,2-b]pyridazine-3-carbonitrile]: the DC50 was found to be 65 nM and the Dmax worked out at 90%.
For `CNc1cc(-c2ccc3cc(C#N)cnn23)ncc1-c1nnc([C@H]2CC[C@H](C(=O)N3CCc4cc([C@H]5CCC(=O)NC5=O)ccc4C3)CC2)s1` (racemic) [Example 5, 7-[4-(methylamino)-5-{5-[(1r,4r)-4-{6-[(3RS)-2,6-dioxopiperidin-3-yl]-1,2,3,4-tetrahydroisoquinoline-2-carbonyl}cyclohexyl]-1,3,4-thiadiazol-2-yl}pyridin-2-yl]pyrrolo[1,2-b]pyridazine-3-carbonitrile], in that order: 21 nM and 79%.
For `CNc1cc(-c2ccc3cc(C#N)cnn23)ncc1-c1nnc([C@H]2CC[C@H](CN3CCc4cc([C@H]5CCC(=O)NC5=O)ccc4C3)CC2)s1` (racemic) [Example 6, 7-[4-(methylamino)-5-{5-[(1r,4r)-4-({6-[(3RS)-2,6-dioxopiperidin-3-yl]-1,2,3,4-tetrahydroisoquinolin-2-yl}methyl)cyclohexyl]-1,3,4-thiadiazol-2-yl}pyridin-2-yl]pyrrolo[1,2-b]pyridazine-3-carbonitrile], in that order: 70 nM and 36%.
As to `CC(C)Nc1cc(-c2ccc3cc(C#N)cnn23)ncc1-c1nnc(N2CCN(CC3CCN(c4ccc(C5CCC(=O)NC5=O)cn4)CC3)C3(CC3)C2)s1` (racemic) [Example 7, rac-7-[5-(5-{4-[(1-{5-[(3R)-2,6-dioxopiperidin-3-yl]pyridin-2-yl}piperidin-4-yl)methyl]-4,7-diazaspiro[2.5]octan-7-yl}-1,3,4-thiadiazol-2-yl)-4-[(propan-2-yl)amino]pyridin-2-yl]pyrrolo[1,2-b]pyridazine-3-carbonitrile], the DC50 was found to be 129 nM and the Dmax came out at 17%.
For `N#Cc1cnn2c(-c3cc(NC4CCOCC4)c(-c4nnc(N5CCN(CC6CCN(c7ccc(C8CCC(=O)NC8=O)cc7)CC6)CC5)s4)cn3)ccc2c1` (racemic) [Example 9, rac-7-[5-(5-{4-[(1-{4-[(3R)-2,6-dioxopiperidin-3-yl]phenyl}piperidin-4-yl)methyl]piperazin-1-yl}-1,3,4-thiadiazol-2-yl)-4-[(oxan-4-yl)amino]pyridin-2-yl]pyrrolo[1,2-b]pyridazine-3-carbonitrile], in that order: 69 nM and 90%.
For `CC(C)Nc1cc(-c2ccc3cc(C#N)cnn23)ncc1-c1nnc(N2CCN(C[C@@H]3CCN(c4ccc([C@H]5CCC(=O)NC5=O)cn4)C3)CC2)s1` (racemic) [Example 10, 7-{5-[5-(4-{[(3RS)-1-{5-[(3RS&)-2,6-dioxopiperidin-3-yl]pyridin-2-yl}pyrrolidin-3-yl]methyl}piperazin-1-yl)-1,3,4-thiadiazol-2-yl]-4-[(propan-2-yl)amino]pyridin-2-yl}pyrrolo[1,2-b]pyridazine-3-carbonitrile], in that order: 41 nM and 71%.
For `N#Cc1cnn2c(-c3cc(NC4CCOCC4)c(-c4nnc(N5CCN(CC6CCN(c7cncc(C8CCC(=O)NC8=O)c7)CC6)CC5)s4)cn3)ccc2c1` (racemic) [Example 11, rac-7-[5-(5-{4-[(1-{5-[(3R)-2,6-dioxopiperidin-3-yl]pyridin-3-yl}piperidin-4-yl)methyl]piperazin-1-yl}-1,3,4-thiadiazol-2-yl)-4-[(oxan-4-yl)amino]pyridin-2-yl]pyrrolo[1,2-b]pyridazine-3-carbonitrile], in that order: 32 nM and 77%.
As for `N#Cc1cnn2c(-c3cc(NC4CCOCC4)c(-c4nnc(N5CCN(CC6CCN(c7cc(C8CCC(=O)NC8=O)ccn7)CC6)CC5)s4)cn3)ccc2c1` (racemic) [Example 12, rac-7-[5-(5-{4-[(1-{4-[(3R)-2,6-dioxopiperidin-3-yl]pyridin-2-yl}piperidin-4-yl)methyl]piperazin-1-yl}-1,3,4-thiadiazol-2-yl)-4-[(oxan-4-yl)amino]pyridin-2-yl]pyrrolo[1,2-b]pyridazine-3-carbonitrile], the DC50 was 36 nM and the Dmax stood at 60%.
For `N#Cc1cnn2c(-c3cc(NC4CCOCC4)c(-c4nnc(N5CCN(C[C@@H]6CCN(c7ccc([C@H]8CCC(=O)NC8=O)cn7)C6)CC5)s4)cn3)ccc2c1` (racemic) [Example 13, 7-{5-[5-(4-{[(3RS)-1-{5-[(3RS&)-2,6-dioxopiperidin-3-yl]pyridin-2-yl}pyrrolidin-3-yl]methyl}piperazin-1-yl)-1,3,4-thiadiazol-2-yl]-4-[(oxan-4-yl)amino]pyridin-2-yl}pyrrolo[1,2-b]pyridazine-3-carbonitrile], in that order: 32 nM and 66%.
